Reference: patent US8226966B2, “Fungicide N-6-membered fused (hetero) aryl-methylene-N-cycloalkyl carboxamide derivatives” (Bayer Cropscience AG, priority 2007, dated 2012)

Test: logP by HPLC on reversed-phase column (C 18), EEC Directive 79/831 Annex V.A8
Assay type: physicochemical
Conditions: 40° C., 0.1% aqueous formic acid and acetonitrile
Procedure: In the following table, the logP values were determined in accordance with EEC Directive 79/831 Annex V.A8 by HPLC (High Performance Liquid Chromatography) on a reversed-phase column (C 18), using the method described below: Temperature: 40° C.; Mobile phases: 0.1% aqueous formic acid and acetonitrile linear gradient from 10% acetonitrile to 90% acetonitrile. Calibration was carried out using unbranched alkan-2-ones (comprising 3 to 16 carbon atoms) with known logP values (determination of the logP values by the retention times using linear interpolation between two successive alkanones).

[1] = linear gradient from 10% to 90% acetonitrile
[2] = linear gradient 10% to 90% acetonitrile

| Compound | LogP [1] | LogP [2] |
| --- | --- | --- |
| Cc1nn(C)c(F)c1C(=S)N(Cc1ccc2ccccc2c1Br)C1CC1 [Example 25] | 4.39 |  |
| COc1nn(C)cc1C(=S)N(Cc1ccc2ccccc2c1Br)C1CC1 [Example 28] | 4.25 |  |
| Cc1nn(C)c(F)c1C(=O)N(Cc1ccc(Br)c2ccccc12)C1CC1 [Example 54] | 3.62 |  |
| Cc1cc(C(=O)N(C2CC2)C(C)c2ccc(Br)c3ccccc23)c(C)o1 (stereo not shown) [Example 60] | 5.2 |  |
| COC(=O)C(c1cccc2ccccc12)N(C(=O)c1c(C)nn(C)c1F)C1CC1 (stereo not shown) [Example 63] | 2.92 |  |
| COC(=O)C(c1cccc2ccccc12)N(C(=O)c1cn(C)nc1C(F)F)C1CC1 (stereo not shown) [Example 69] | 3.02 |  |
| COc1nn(C)cc1C(=O)N(C1CC1)C(C)c1cccc2ccccc12 (stereo not shown) [Example 75] | 2.86 |  |
| Cc1nn(C)c(F)c1C(=O)N(Cc1ccc(Br)c2cccnc12)C1CC1 [Example 167] |  | 2.9 |
| COc1ccc2ccc(OC)c(CN(C(=O)c3c(C)nn(C)c3F)C3CC3)c2c1 [Example 222] |  | 2.96 |

Second part, the molecule after the results:

| LogP [1] | LogP [2] | Compound |
| --- | --- | --- |
| 3.68 |  | Cn1cc(C(=O)N(Cc2ccc3ccccc3c2Br)C2CC2)c(C(F)F)n1 [Example 26] |
| 3.24 |  | COc1nn(C)cc1C(=O)N(Cc1ccc2ccccc2c1Br)C1CC1 [Example 27] |
| 3.25 |  | Cc1ccc2ccccc2c1CN(C(=O)c1cn(C)nc1C(F)F)C1CC1 [Example 40] |
| 3.69 |  | Cn1cc(C(=O)N(Cc2ccc(Br)c3ccccc23)C2CC2)c(C(F)F)n1 [Example 55] |
